# Test results reported in PMC10291553, “Exploring Structure–Activity Relationships in Photodynamic Therapy Anticancer Agents Based on Ir(III)-COUPY Conjugates” (Journal of Medicinal Chemistry, 2023).
# Where “and” joins values, the source holds several entries; their conditions need not be identical. Identical values can stand only once. Like-named read-outs stand apart in the source and are kept apart here.
# What was measured:
# [1] = test system: A2780; assay: Photo- and cytotoxic activity determination (MTT), A2780 cells; type: cell-based; details: normoxia; for IC50: 48 h drug-free medium
# Description: (§1) Having shown that the Ir(III)-COUPY conjugates can sensitize both type I and II ROS through spectroscopic techniques and readily internalize into living cells, their photocytotoxicity was screened in various cancer cell lines. This screening included two representative melanoma cell lines (human A375 and […] human SK-MEL-28) and cancer cells with resistance to the clinical drug cisplatin. For the latter, both sensitive and cisplatin-resistant ovarian cancer cells (A2780 and A2780cis) as well as HeLa cells, which also show a degree of chemoresistance to the platinum anticancer drug in vitro,[54] were used. For the determination of dark and light cytotoxicity, dose–response curves were assayed from both conditions to provide the correspondent IC50 values, which correspond to the concentration needed for inhibition of cell growth by 50%. Phototherapeutic index (PI) was calculated as the ratio of dark to light IC50 value for each compound.
# (§2) A375, HeLa, and SK-MEL-28 cells were cultured in Dulbecco’s modified Eagle medium (DMEM) supplemented with 10% FBS, L-glutamine, and 1% penicillin–streptomycin. A2780 and A2780cis cells were grown in RPMI-1640 cell medium supplemented with 10% fetal bovine serum (FBS) and 2 mM L-glutamine. Acquired resistance to cisplatin in the A2780cis cell line was maintained by adding cisplatin 1 μM to culture medium every second passage. Cells were cultured in a humidified incubator at 310 K with 5% CO2 atmosphere and subcultured two or three times a week with appropriate densities and were confirmed to be mycoplasma-free using a standard Hoechst DNA staining method.
# (§3) A2780, A2780cis, HeLa, A375, and SK-MEL-28 cells were maintained at logarithmic growth-phase and cultured in 96-well plates at a density of 5000 cells/well in complete medium for 24 h at 310 K, 5% CO2 in a humidified incubator. For hypoxia experiments, a hypoxia condition was set up by Tissue Culture Service at University of Murcia using nitrogen (N2) to displace O2 down to a minimum of 2% in a Forma Steri-Cycle i160 incubator (Thermo Fisher Scientific). Serial dilutions of the compounds were added at the final concentrations in the range of 0–100 μM in a final volume of 100 μL per well. A light-based treatment schedule was performed as follows: 1 h incubation with the compounds in the dark, followed by 1 h incubation under irradiation conditions by placing the Photoreactor EXPO-LED from Luzchem (Canada) fitted with green lamps (final light intensity applied of 1.5 mW/cm^2 at λmax = 520 nm) inside the CO2 incubator. All the cell culture plates subjected to light irradiation included untreated controls to verify that cell viability was not affected by light. Then, treatment-containing media was removed, and fresh media was added for a 48 h cell recovery period; the temperature throughout the experiment remained at 310 K. Dark control samples were placed in the same dark conditions and then kept incubated for 1 h in the dark in the humidified CO2 incubator. Medium was then aspirated by suction, cells were loaded with 50 μL of MTT solution (1 mg/mL) for additional 4 h and then removed, and 50 μL of DMSO was added to solubilize the purple formazan crystals formed in active cells. The absorbance was measured at 570 nm using a microplate reader (FLUOstar Omega), and the IC50 values were calculated based on the inhibitory rate curves using the following equation [drawing 4] 4 where I represents the percentage inhibition of viability observed, Imax is the maximal inhibitory effect, IC50 is the concentration that inhibits 50% of maximal growth, C is the concentration of the treatment, and n is the slope of the semi-logarithmic dose–response sigmoidal curves. The non-linear fitting was performed using SigmaPlot 14.0 software. All experiments were performed in three independent studies with n = 3 replicates per concentration level. For a detailed phototoxicity procedure, ref ([43]) includes technical explanations.
# [2] = test system: A2780cis cells; assay: Photo- and cytotoxic activity determination (MTT), A2780cis cells, normoxia or hypoxia; type: cell-based
# Method in brief: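 Dark and light IC50 values come from MTT viability (A570) after 1 h compound exposure in the dark, then 1 h under 520 nm light at 1.5 mW/cm^2 or continued darkness, and 48 h drug-free recovery. Phototherapeutic index is dark/light IC50. A2780cis were kept resistant with 1 μM cisplatin every second passage.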
# [3] = test system: HeLa; assay: Photo- and cytotoxic activity determination (MTT), HeLa cells; type: cell-based; details: normoxia; for IC50: 48 h drug-free medium
# Description: as §1, §2, §3
# [4] = test system: A375; assay: Photo- and cytotoxic activity determination (MTT), A375 cells; type: cell-based, human; details: normoxia; for IC50: 48 h drug-free medium
# Description: as §1, §2, §3
# [5] = 520 nm, dark tested up to 100 μM
compound,measurement,setting,value
CCCCn1c2[n+](c3cc(C(=O)NC[C@H]4CC[C@H](C(=O)NCCCNC(=O)C[n+]5ccc(/C(C#N)=C6/C=C(C)c7ccc(N(CC)CC)cc7O6)cc5)CC4)ccc31)[Ir-3]13([c]4ccccc4-c4[nH]c5ccccc5[n+]41)([c]1ccccc1-c1[nH]c4ccccc4[n+]13)[n+]1c-2ccc2ccccc21 [3e],"A2780 PI (phototherapeutic index), IC50 dark/IC50 irradiated",[1]; [5],> 53
same,IC50,"[1]; 1 h incubation + 1 h green light 520 nm, 1.5 mW cm^–2, read-out: A2780 light IC50",1.9 ± 0.2 µM
same,IC50,"[1]; kept in the dark, 2 h treatment, read-out: A2780 dark IC50",> 100 µM
same,"Partial inhibition (% of cell growth inhibition with respect to untreated controls), Hypoxia","[2]; 250 μM, A2780cis, 2 h incubation in the dark, 48 h drug-free recovery, hypoxia",12 ± 3%
same,"Partial inhibition (% of cell growth inhibition with respect to untreated controls), Normoxia","[2]; 250 μM, A2780cis, 2 h incubation in the dark, 48 h drug-free recovery, normoxia",18 ± 1%
same,Hypoxia PI (phototherapeutic index),"[2]; A2780cis, hypoxia 2% O2, 520 nm, dark tested up to 250 μM",> 147.1 and > 147
same,IC50,"[2]; A2780cis, hypoxia 2% O2, dark, tested up to 250 μM, read-out: Hypoxia Dark IC50",> 250 µM
same,Normoxia PI (phototherapeutic index),"[2]; A2780cis, normoxia 21% O2, 520 nm, dark tested up to 250 μM",> 268.8 and > 269
same,IC50,"[2]; A2780cis, normoxia 21% O2, dark, tested up to 250 μM, read-out: Normoxia Dark IC50",> 250 µM
same,IC50,"[2]; hypoxia, 520 nm, read-out: A2780cis Light 520 nm IC50 (microM) Hypoxia",1.7 ± 0.3 µM
same,IC50,"[2]; hypoxia, dark, read-out: A2780cis Dark IC50 (microM) Hypoxia",> 250 µM
same,"A2780cis PI (phototherapeutic index), IC50 dark/IC50 irradiated","[2]; normoxia, 520 nm, dark tested up to 100 μM",> 108
same,IC50,"[2]; normoxia, 1 h incubation + 1 h green light 520 nm, 1.5 mW cm^–2, 48 h drug-free medium, read-out: A2780cis light IC50",0.93 ± 0.04 µM
same,IC50,"[2]; normoxia, dark, up to 250 microM, read-out: A2780cis Dark IC50 (microM) Normoxia",> 250 µM
same,IC50,"[2]; normoxia, kept in the dark, tested up to 100 μM, 2 h treatment, 48 h drug-free medium, read-out: A2780cis dark IC50",> 100 µM
same,"HeLa PI (phototherapeutic index), IC50 dark/IC50 irradiated",[3]; [5],> 11
same,IC50,"[3]; 1 h incubation + 1 h green light 520 nm, 1.5 mW cm^–2, read-out: HeLa light IC50",9.3 ± 0.8 µM
same,IC50,"[3]; kept in the dark, 2 h treatment, read-out: HeLa dark IC50",> 100 µM
same,"A375 PI (phototherapeutic index), IC50 dark/IC50 irradiated",[4]; [5],> 5
same,IC50,"[4]; 1 h incubation + 1 h green light 520 nm, 1.5 mW cm^–2, read-out: A375 light IC50",19 ± 3 µM
same,IC50,"[4]; kept in the dark, 2 h treatment, read-out: A375 dark IC50",> 100 µM
